Holding throughout (experiment): Enzyme Assay and Determination of the Inhibition Constants
One assay deals with Coagulation factor X (Homo sapiens, UniProt P00742).
The target of the next assay is Prothrombin (Homo sapiens, UniProt P00734).
Assay [1] concerns the target Urokinase-type plasminogen activator (Homo sapiens, UniProt P00749).
The target in assay [2] is T1, Serine protease 1 (Bos taurus, UniProt P00760).
T1 sequence (P00760 whole entry): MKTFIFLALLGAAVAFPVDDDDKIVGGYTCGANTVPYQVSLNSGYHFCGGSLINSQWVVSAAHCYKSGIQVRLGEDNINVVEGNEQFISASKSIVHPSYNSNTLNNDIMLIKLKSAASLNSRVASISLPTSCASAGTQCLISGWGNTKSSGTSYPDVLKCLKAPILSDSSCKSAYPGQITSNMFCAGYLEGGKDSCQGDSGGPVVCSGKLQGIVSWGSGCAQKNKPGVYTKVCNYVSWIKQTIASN

Assay [3] deals with Serine protease 1 (Homo sapiens, UniProt P07477).

The Ki is a dissociation constant, usually derived from enzyme kinetics or from competition with a known ligand.

Sequence of Coagulation factor X (P00742 41-179 limits assumed): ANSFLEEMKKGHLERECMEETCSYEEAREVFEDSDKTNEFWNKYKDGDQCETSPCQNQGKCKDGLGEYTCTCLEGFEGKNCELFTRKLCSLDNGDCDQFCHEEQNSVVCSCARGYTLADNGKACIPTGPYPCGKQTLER
Sequence of Coagulation factor X (P00742 235-488 limits assumed): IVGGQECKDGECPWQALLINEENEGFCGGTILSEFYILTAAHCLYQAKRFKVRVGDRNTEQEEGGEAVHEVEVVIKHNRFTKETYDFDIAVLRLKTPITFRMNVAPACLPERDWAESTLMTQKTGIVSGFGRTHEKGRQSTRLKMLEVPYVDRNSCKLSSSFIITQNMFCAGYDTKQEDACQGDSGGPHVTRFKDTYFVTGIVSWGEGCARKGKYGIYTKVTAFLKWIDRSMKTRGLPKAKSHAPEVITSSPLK
Sequence of Serine protease 1 (Homo sapiens, UniProt P07477) (P07477 whole entry): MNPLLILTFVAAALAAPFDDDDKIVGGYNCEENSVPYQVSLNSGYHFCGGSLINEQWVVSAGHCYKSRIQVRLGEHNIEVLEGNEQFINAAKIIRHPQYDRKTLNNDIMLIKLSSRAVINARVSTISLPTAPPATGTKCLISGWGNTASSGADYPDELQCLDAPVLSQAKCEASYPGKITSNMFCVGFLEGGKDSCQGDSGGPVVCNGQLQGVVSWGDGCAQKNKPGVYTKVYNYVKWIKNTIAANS

Take `N=C(N)c1ccc2nc(-c3cc([N+](=O)[O-])ccc3O)[nH]c2c1` [2-{5-[amino(iminiumyl)methyl]-1H-1,3-benzodiazol-2-yl}-4-nitrobenzen-1-olate]: the Ki turned out to be 7.3 µM on Coagulation factor X; 23 µM at Prothrombin; 5.1 µM in assay [1]; 0.47 µM at Serine protease 1 [2] (pH 6.1, 22 °C).

In the case of `N=C(N)c1ccc2[nH]c(-c3cc(Cl)cc(-c4ccccc4)c3O)cc2c1` [2-{5-[amino(iminiumyl)methyl]-1H-indol-2-yl}-4-chloro-6-phenylbenzen-1-olate], the Ki on Coagulation factor X amounted to 0.25 µM; on Serine protease 1 [3], 0.54 µM; on Prothrombin it was 1 µM; in assay [1], 0.59 µM; on Serine protease 1 [2], 0.013 µM.

Regarding `Cc1cc(-c2ccccc2)c(O)c(-c2cc3cc(C(=N)N)ccc3[nH]2)c1` [2-{5-[amino(iminiumyl)methyl]-1H-indol-2-yl}-4-methyl-6-phenylbenzen-1-olate], the Ki on Coagulation factor X amounted to 0.18 µM; at Serine protease 1 [3], 0.38 µM; in assay [1] it was 0.34 µM; on Serine protease 1 [2] (pH 7.6, 22 °C) it was 0.015 µM.

For `N=C(N)c1ccc2[nH]c(-c3cc([N+](=O)[O-])cc(-c4ccccc4)c3O)cc2c1` [2-{5-[amino(iminiumyl)methyl]-1H-indol-2-yl}-4-nitro-6-phenylbenzen-1-olate], the results for the Ki at Coagulation factor X, on Serine protease 1 [3] and at Serine protease 1 [2] were 0.013 µM, 0.08 µM and 0.0013 µM, respectively.

For `N=C(N)c1ccc2[nH]c(-c3ccccc3O)cc2c1` [2-{5-[amino(iminiumyl)methyl]-1H-indol-2-yl}benzen-1-olate], the Ki at Coagulation factor X was determined as 2.4 µM; at Serine protease 1 [3] it was 4.9 µM; on Prothrombin, 12 µM; in assay [1], 2.9 µM; at Serine protease 1 [2] (pH 8.04, 22 °C), 0.6 µM.

Turning to `N=C(N)c1cc2nc(-c3cccc(-c4ccccc4)c3O)[nH]c2cc1F` [2-{5-[amino(iminiumyl)methyl]-6-fluoro-1H-1,3-benzodiazol-2-yl}-6-phenylbenzen-1-olate], the Ki was determined as 12 µM at Serine protease 1 [3]; 0.28 µM in assay [1]; 0.23 µM at Serine protease 1 [2] (pH 7.5, 22 °C).

`N=C(N)c1ccc2nc(-c3cc([C@@H](CC(=O)O)C(=O)O)cc(-c4ccccc4)c3O)[nH]c2c1` [(2R)-2-(3-{5-[amino(iminiumyl)methyl]-1H-1,3-benzodiazol-2-yl}-4-oxido-5-phenylphenyl)butanedioate]: the Ki at Coagulation factor X worked out at 1.2 µM; on Serine protease 1 [3], 3.7 µM; at Prothrombin, 160 µM; in assay [1] it was 0.12 µM; on Serine protease 1 [2], 0.29 µM.

For `N=C(N)c1ccc2nc(-c3cc([C@@H](CC(=O)O)C(=O)O)ccc3O)[nH]c2c1` [(2R)-2-(3-{5-[amino(iminiumyl)methyl]-1H-1,3-benzodiazol-2-yl}-4-oxidophenyl)butanedioate], the Ki at Coagulation factor X is 10 µM; on Serine protease 1 [3], 4.4 µM; at Prothrombin, over 75 µM; on Serine protease 1 [2], 10 µM.

With `N=C(N)c1ccc2nc(-c3cc([C@@H](CC(=O)O)C(=O)O)cc(-c4ccccc4N)c3O)[nH]c2c1` [(2R)-2-(3-{5-[amino(iminiumyl)methyl]-1H-1,3-benzodiazol-2-yl}-5-(2-aminophenyl)-4-oxidophenyl)butanedioate], the inhibition constant Ki at Coagulation factor X is 3.8 µM; at Serine protease 1 [3], 8.5 µM; on Prothrombin it was over 75 µM; at Serine protease 1 [2], 1.1 µM.

For `N=C(N)c1ccc2[nH]c(-c3cc([C@@H](CC(=O)O)C(=O)O)cc(Br)c3O)cc2c1` [(2R)-2-(3-{5-[amino(iminiumyl)methyl]-1H-indol-2-yl}-5-bromo-4-oxidophenyl)butanedioate], the Ki at Coagulation factor X was determined as 0.048 µM; on Serine protease 1 [3] it was 1.7 µM; on Prothrombin, 1.7 µM; at Serine protease 1 [2], 0.24 µM.

In the case of `N=C(N)c1cc2cc(-c3cccc(-c4ccccc4)c3O)[nH]c2cc1F` [CA-12], the results for the Ki at Serine protease 1 [3], on Prothrombin and on Serine protease 1 [2] were 0.66 µM, 6.3 µM and 0.19 µM, respectively.

Source of the values: BindingDB's records for doi:10.1016/s0022-2836(03)00399-1 (Celera, 2003).
